What follows are molecules tested against BRG1 (Homo sapiens, UniProt P51532) (assay: biochemical). Conditions: BRG1 HTRF IC50 (µM).
Assay type: binding
From the text: IC50 measurements for inhibitors using BRG1 TR-FRET Binding Assay

Sequence of BRG1 (P51532 1448-1575): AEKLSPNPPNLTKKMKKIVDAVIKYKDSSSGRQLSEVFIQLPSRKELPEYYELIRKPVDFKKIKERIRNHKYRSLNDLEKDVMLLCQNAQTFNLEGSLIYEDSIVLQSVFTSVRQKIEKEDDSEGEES

Nc1nnc(-c2ccccc2O)cc1N1CC2CCC(C1)N2c1cncnc1 [Example 43, 2-(6-amino-5-(8-(pyrimidin-5-yl)-3,8-diazabicyclo[3.2.1]octan-3-yl)pyridazin-3-yl)phenol] and Nc1nnc(-c2ccccc2O)cc1N1CC2CCC(C1)N2C(=O)c1cncs1 [Example 126, (3-(3-amino-6-(2-hydroxyphenyl)pyridazin-4-yl)-3,8-diazabicyclo[3.2.1]octan-8-yl)(thiazol-5-yl)methanone] are within 1.5-fold of each other in IC50: 0.0193 µM for the first, 0.0203 µM for the second.

First: C[C@@H]1CN(c2cc(-c3ccccc3O)nnc2N)CCN1Cc1nccn1C [Example 93, (R)-2-(6-amino-5-(3-methyl-4-((1-methyl-1H-imidazol-2-yl)methyl)piperazin-1-yl)pyridazin-3-yl)phenol]
Second: CC1CN(c2cc(-c3ccccc3O)nnc2N)CCN1Cc1ccccc1 (stereo not drawn) [Example 22, 2-(6-amino-5-(4-benzyl-3-methylpiperazin-1-yl)pyridazin-3-yl)phenol]
The IC50 of the first is 1.8-fold lower: 0.0238 µM for the first, 0.0421 µM for the second. The first is the more potent here.

Compared with CC1(C)CN(c2cc(-c3ccccc3O)nnc2N)CCN1S(C)(=O)=O [Example 112, 2-(6-amino-5-(3,3-dimethyl-4-(methylsulfonyl)piperazin-1-yl)pyridazin-3-yl)phenol], CN(C)C1CCN(c2cc(-c3ccccc3O)nnc2N)CC1 [Example 91, 2-[6-amino-5-[4-(dimethylamino)-1-piperidyl]pyridazin-3-yl]phenol] is 3-fold higher in IC50: 0.0307 µM for the first, 0.0929 µM for the second. The first is the more potent here.

Compared with C[C@@H]1CN(c2cc(-c3ccccc3O)nnc2N)C[C@@H](C)O1 [Example 242, 2-[6-amino-5-[(2R,6R)-2,6-dimethylmorpholin-4-yl]pyridazin-3-yl]phenol], CC(C)(O)C1CCN(c2cc(-c3ccccc3O)nnc2N)CC1 [Example 20, 2-(6-amino-5-(4-(2-hydroxypropan-2-yl)piperidin-1-yl)pyridazin-3-yl)phenol] is 1.6-fold lower in IC50: 0.0589 µM for the first, 0.0358 µM for the second.

Nc1nnc(-c2ccccc2O)cc1N1CCN(C(=O)c2cncs2)C(CO)C1 (stereo not drawn) [Example 143, (4-(3-amino-6-(2-hydroxyphenyl)pyridazin-4-yl)-2-(hydroxymethyl)piperazin-1-yl)(thiazol-5-yl)methanone] and CC(C)[C@H](N)C(=O)N1CCN(c2cc(-c3ccccc3O)nnc2N)C[C@H]1C [Example 157, 2-Amino-1-((R)-4-(3-amino-6-(2-hydroxyphenyl)pvridazin-4-yl)-2-methylpiperazin-1-yl)-3-methylbutan-1-one] are within 1.5-fold of each other in IC50: 0.0206 µM for the first, 0.0296 µM for the second.

Going from Nc1nnc(-c2ccccc2O)cc1N1CCC(O)(Cc2ccccc2)C1 (stereo not drawn) [Example 39, 1-(3-amino-6-(2-hydroxyphenyl)pyridazin-4-yl)-3-benzylpyrrolidin-3-ol] to CC1CN(c2cc(-c3ccccc3O)nnc2N)CCC1(O)c1ccccc1 (stereo not drawn) [Example 44, 1-(3-amino-6-(2-hydroxyphenyl)pyridazin-4-yl)-3-methyl-4-phenylpiperidin-4-ol], the IC50 falls from 0.113 µM to 0.0253 µM (4.5-fold).

CNC(=O)CN1CCN(c2cc(-c3ccccc3O)nnc2N)CC1 [Example 24, 2-(4-(3-amino-6-(2-hydroxyphenyl)pyridazin-4-yl)piperazin-1-yl)-N-methylacetamide] and Nc1nnc(-c2ccccc2O)cc1N1CCN(CC(F)(F)F)CC1 [Example 27, 2-(6-amino-5-(4-(2,2,2-trifluoroethyl)piperazin-1-yl)pyridazin-3-yl)phenol] are within 1.5-fold of each other in IC50: 0.0746 µM for the first, 0.0755 µM for the second.

First: Nc1nnc(-c2ccccc2O)cc1C(=O)NCc1ccccc1 [Example 234, 3-amino-N-benzyl-6-(2-hydroxyphenyl)pyridazine-4-carboxamide]
Second: Nc1nnc(-c2ccccc2O)cc1N1CC(OCc2ccccc2)C1 [Example 58, 2-(6-amino-5-(3-(benzyloxy)azetidin-1-yl)pyridazin-3-yl)phenol]
The IC50 of the first is 4-fold higher: 0.102 µM for the first, 0.0252 µM for the second. The second is the more potent here.

First: CC(C(=O)N(C)C)n1cc(-c2cc(-c3ccccc3O)nnc2N)cn1 (stereo not drawn) [Example 194, 2-(4-(3-amino-6-(2-hydroxyphenyl)pyridazin-4-yl)-1 H-pyrazol-1-yl)-N,N-dimethylpropanamide]
Second: CN(C)C(=O)C1CCN(c2cc(-c3ccccc3O)nnc2N)CC1 [Example 19, 1-(3-amino-6-(2-hydroxyphenyl)pyridazin-4-yl)-N,N-dimethylpiperidine-4-carboxamide]
The IC50 of the first is 2.3-fold lower: 0.0247 µM for the first, 0.0564 µM for the second.

Going from Nc1nnc(-c2ccccc2O)cc1N1CCNC(C(F)(F)F)C1 (stereo not drawn) [Example 23, 2-(6-amino-5-(3-(trifluoromethyl)piperazin-1-yl)pyridazin-3-yl)phenol] to C[C@@H](C1CCN(c2cc(-c3ccccc3O)nnc2N)CC1)N(C)C [Example 60, (S)-2-(6-amino-5-(4-(1-(dimethylamino)ethyl)piperidin-1-yl)pyridazin-3-yl)phenol], the IC50 falls from 0.172 µM to 0.0247 µM (7-fold). The second is the more potent here.

Going from Nc1nnc(-c2ccccc2O)cc1N1C[C@H]2C[C@@H]1CN2c1ccccn1 [Example 74, 2-(6-amino-5-((1R,4R)-5-(pyridin-2-yl)-2,5-diazabicyclo[2.2.1]heptan-2-yl)pyridazin-3-yl)phenol] to Nc1nnc(-c2ccccc2O)cc1N1CCN(c2ccccc2)C(=O)C1 [Example 64, 4-(3-amino-6-(2-hydroxyphenyl)pyridazin-4-yl)-1-phenylpiperazin-2-one], the IC50 rises from 0.0106 µM to 0.208 µM (20-fold). The first is the more potent here.

First: Nc1nnc(-c2ccccc2O)cc1C1CCCN(Cc2ccccc2)C1 (stereo not drawn) [Example 214, 2-[6-amino-5-(1-benzyl-3-piperidyl)pyridazin-3-yl]phenol]
Second: Nc1nnc(-c2ccccc2O)cc1C1=CCN(Cc2ccccc2)CC1 [Example 223, 2-(6-amino-5-(1-benzyl-1,2,3,6-tetrahydropyridin-4-yl)pyridazin-3-yl)phenol]
The IC50 of the first is 5.5-fold higher: 0.112 µM for the first, 0.0205 µM for the second.

Going from Nc1nnc(-c2ccc(F)cc2O)cc1-c1ccccc1 [Example 231, 2-(6-amino-5-phenylpyridazin-3-yl)-5-fluorophenol] to Nc1nnc(-c2ccccc2O)cc1OC1CCc2ccccc21 (stereo not drawn) [Example 182, 2-(6-amino-5-((2,3-dihydro-1H-inden-1-yl)oxy)pyridazin-3-yl)phenol], the IC50 falls from 0.995 µM to 0.606 µM (1.6-fold).

First: Cn1ncc2cc(CN3CCN(c4cc(-c5ccccc5O)nnc4N)CC3)ccc21 [Example 105, 2-[6-amino-5-[4-[(1-methylindazol-5-yl)methyl]piperazin-1-yl]pyridazin-3-yl]phenol]
Second: Nc1nnc(-c2ccccc2O)cc1N1CCN(Cc2ccncc2)CC1 [Example 98, 2-[6-amino-5-[4-(4-pyridylmethyl)piperazin-1-yl]pyridazin-3-yl]phenol]
The IC50 of the first is 2.9-fold lower: 0.0279 µM for the first, 0.0796 µM for the second.

Nc1nnc(-c2ccccc2O)cc1N1CCN(Cc2ccccc2)C(=O)C1 [Example 14, 4-(3-amino-6-(2-hydroxyphenyl)pyridazin-4-yl)-1-benzylpiperazin-2-one] and N#Cc1cccc(CN2CCN(c3cc(-c4ccccc4O)nnc3N)CC2)c1 [Example 96, 3-[[4-[3-amino-6-(2-hydroxyphenyl)pyridazin-4-yl]piperazin-1-yl]methyl]benzonitrile] are within 1.5-fold of each other in IC50: 0.0735 µM for the first, 0.0569 µM for the second.

Nc1nnc(-c2ccccc2O)cc1N1CCC2(CC1)CNC(=O)C2 [Example 29, 8-(3-amino-6-(2-hydroxyphenyl)pyridazin-4-yl)-2,8-diazaspiro[4.5]decan-3-one] and Nc1nnc(-c2ccccc2O)cc1C1CCOCC1 [Example 213, 2-(6-amino-5-(tetrahydro-2H-pyran-4-yl)pyridazin-3-yl)phenol] are within 1.5-fold of each other in IC50: 0.0566 µM for the first, 0.0611 µM for the second.

With Nc1nnc(-c2ccccc2O)cc1OC1CCCC1 [Example 176, 2-(6-amino-5-(cyclopentyloxy)pyridazin-3-yl)phenol] the IC50 was 0.0371 µM.
